In patent publication US11932638B2, “Ion channel inhibitor compounds for cancer treatment” (Centre National de la Recherche Scientifique, priority 2017, dated 2024):

Key:
SK3 channel = molecular target: T1, SK3 channel (Rattus norvegicus, UniProt P70605); experiment: Conventional manual patch clamp on HEK-rSK3 cells, SK3 channel activity; format: cell-based; details: for inhibition at 0.05 µM: 50 nM; for inhibition at 0.5 µM: 500 nM; for inhibition at 0.001 µM: 1 nM
T1 construct: expressed in transfected cells
Text: (§1) Cell Lines Used to Screen the Molecules on the Activity of SKCa Channels (Small Conductance Calcium-Activated Potassium Channel; SK1, SK2 and SK3) and IKCa Channels (Intermediate Conductance Calcium-Activated Potassium Channel, SK4)
(§2) Use was made of the HEK 293 T line, a foetal kidney line which was immortalised with the T antigen of the […] simian virus. This cell line is widely used on account of the ease with which these cells can be transfected with plasmids or other transfection vectors. Four stable lines were used for patch clamp experiments: HEK-hSK1, HEK-rSK2, HEK-rSK3 and HEK-IKCa/SK4 which respectively overexpress the SK1, SK2, SK3 and SK4 channels. The lines were obtained via stable transduction (Girault et al., Current Cancer Drug Targets, 2011, 11, 1111-25) and are those already routinely used to assay SK3 modulators (Potier et al. Br J Pharmacol. 2011 January; 162(2):464-79; Sevrain et al., Med. Chem. Commun., 2012, 3, 1471-1478; Sevrain et al., Organic & Biomolecular Chemistry, 2013 Jul. 21; 11(27):4479-87, Berthe W, Sevrain C M, Chantôme A, Bouchet A M, Gueguinou M, Fourbon Y, Potier-Cartereau M, Haelters J P, Couthon-Gourvès H, Vandier C, Jaffrès P A. ChemMedChem. 2016 Jul. 19; 11(14):1531-9). […] These lines therefore enabled us without difficulty to examine the effect of the molecules on the SK3 channel, and also the selectivity thereof by means of the patch clamp technique. The inhibitory activity of the non-toxic molecules was assayed on the activity of the SK3 channel. The selectivity of the molecules was determined by patch clamp on HEK cell models stably expressing the SK3 channel but also the SK1, SK2, SK3 or IKCa/SK4 channels.
Electrophysiology/Patch-Clamp
(§3) Patch clamp is a technique allowing measurement of the activity of ion channels by recording macroscopic (whole cell configuration) or microscopic (e.g. inside out configuration) ionic currents through the plasma membrane. For assay of the effect of the molecules on the SKCa/IKCa channels, two complementary techniques were used: conventional, manual patch clamp and automated patch clamp with the Nanion NPC-16 Patchliner Quattro (4 channels) (Potier et al., Mol Cancer Ther 2006, 5, 2946-53; Chantome et al., Exp Cell Res 2009, 315, 3620-30; Potier et al., Biochem Biophys Res Commun 2010, 397, 42-7; Girault et al., Current Cancer Drug Targets, 2011, 11, 1111-25; Sevrain et al., Med. Chem. Commun., 2012, 3, 1471-1478; Sevrain et al., Organic & Biomolecular Chemistry, 2013 Jul. 21; 11(27):4479-87; Chantome et al., Cancer Research, 2013 Aug. 1; 73(15):4852-61, Gueguinou M, Crottès D, Chantôme A, Rapetti-Mauss R, Potier-Cartereau M, Clarysse L, Girault A, Fourbon Y, Jézéquel P, Guérin-Charbonnel C, Fromont G, Martin P, Pellissier B, Schiappa R, Chamorey E, Mignen O, Uguen A, Borgese F, Vandier C, Soriani O. Oncogene. 2017 Jan. 23. doi: 10.1038/onc.2016.501, Berthe W, Sevrain C M, Chantôme A, Bouchet A M, Gueguinou M, Fourbon Y, Potier-Cartereau M, Haelters J P, Couthon-Gourvès H, Vandier C, Jaffrès P A. ChemMedChem. 2016 Jul. 19; 11(14):1531-9, Guéguinou M, Harnois T, Crottes D, Uguen A, Deliot N, Gambade A, Chantôme A, Haelters J P, Jaffrès P A, Jourdan M L, Weber G, Soriani O, Bougnoux P, Mignen O, Bourmeyster N, Constantin B, Lecomte T, Vandier C, Potier-Cartereau M. Oncotarget. 2016 Jun. 14; 7(24):36168-36184. doi: 10.18632/oncotarget.8786).
For conventional patch clamp, the micropipette is filled with an intrapipette medium—IPM (see composition below) and allows measurement of ionic currents at the same time as allowing maintaining of membrane potential (voltage clamp). The experimental device was composed of an anti-vibration table supporting an inverted microscope (Nikon, Eclipse TE 300). The Petri dish (Corning Incorporated, USA), containing the cells was placed on a plexiglass plate attached to the microscope stage. The pipette was connected to the amplifier (Axopatch 200B) as reference electrode which allowed closing of the electrical circuit. […]

SK2 channel = molecular target: T2, SK2 channel (Rattus norvegicus, UniProt P70604); experiment: Automated patch clamp (Nanion NPC-16 Patchliner Quattro) on HEK-rSK2 cells, SK2 channel activity; format: cell-based; details: for inhibition at 0.001 µM: 1 nM; for inhibition at 0.01 µM: 10 nM
T2 construct: expressed in transfected cells
Text: as §1, §2, §3
The technique of choice to determine molecules inhibiting the activity of ion channels is the patch-clamp technique. However, this technique which is manual is time-consuming and only gives low yields. Automation of patch-clamp brought a revolution in the study and screening of ion channels and has allowed the envisaging of assays with much faster flow rate and much higher yield. There exist several automatic patch clamp devices based on the use of chips. […]

[1] = system: MDA-MB-435s-Luc cells expressing the SK3 channel; experiment: In vivo mouse model of orthotopic xenograft: primary tumour and metastases; design: species or system female NMRI nude mice; details: 1 mg/kg intraperitoneal, three times per week
Text: In Vivo Mouse Model of Orthotopic Xenograft: Assay on Capacity of the Molecules to Reduce Tumour Development
This model allowed study on a metastatic cancer with development of the primary tumour and formation of metastases in parallel with primary tumour development. For this assay, female NMRI nude mice aged four weeks were used. To prepare the graft, the terminal end bud of the mice was cauterised with an electrical scalpel and 2 million cells expressing the SK3 channel and luciferase (MDA-MB-435s-Luc) implanted therein. Luciferase allows in vivo monitoring of tumour development via optical imaging (Girault et al., Current Cancer Drug Targets, 2011, 11, 1111-25; Chantome et al., Cancer Research, 2013 Aug. 1; 73(15):4852-61).
Two groups of mice were formed and compound 20 was prepared in a DMSO/PEG300/Water mixture (5:45:50) at 10 ml/kg: • Group 20 1: group treated via intraperitoneal injection of compound 20 at 1 mg/kg, three times per week for […]; and • Control group: group given injections with equivalent vehicle dilution […], three times per week for 15 weeks.
Development of the primary tumour was monitored in two manners: size measurement with a calliper rule (length×width×thickness) and measurement of bioluminescence with a bio-imaging device.
If the primary tumour reached a size of 900 mm^3, it was fully excised to best approach a clinical situation and exclude this variable which could impact the development of metastases. The experiment was continued with injections of compound 20 and monitoring of the development of metastases via BLI with front and back imaging of the mice.
The weight of the mice, bioluminescence and tumour size measurements were carried out every week to monitor tumour changes and metastases. For imaging, the mice were anaesthetised with isoflurane.
After about 15 weeks, the mice were sacrificed. Luciferin was injected before sacrifice to allow whole-animal imaging and imaging of each organ examined (bone, liver, lymph node, brain, colon).

`Cc1nc(NC2CCCc3ccccc32)c2ncccc2n1` (centres unmarked) [Compound 30, 2-Methyl-N-(1,2,3,4-tetrahydronaphthalen-1-yl)pyrido[3,2-d]pyrimidin-4-amine] gave an inhibition at 0.05 µM (SK3 channel) of 35.5%, an inhibition at 0.5 µM (SK3 channel) of 52.9% and an inhibition at 10 µM (SK3 channel; 10 μM) of 87.2%. For the same compound, the inhibition at 10 µM (SK2 channel; 10 μM) was 95%.

For `CCCCCCc1cnc2c(NC3CCCc4ccccc43)ncnc2c1` (centres unmarked) [Compound 40, 7-Hexyl-N-(1,2,3,4-tetrahydronaphthalen-1-yl)pyrido[3,2-d]pyrimidin-4-amine], the inhibition at 0.1 µM (SK3 channel; 100 nM) was 11.9%, the inhibition at 10 µM (SK3 channel; 10 μM) was 82.2% and the inhibition at 0.1 µM (SK2 channel; 100 nM) was 25.6%. For the same compound, the inhibition at 10 µM (SK2 channel; 10 μM) was 88.1%.

For `c1ccc2c(c1)CCC[C@@H]2Nc1ncnc2cccnc12` [Compound 20, (S)—N-(1,2,3,4-Tetrahydronaphthalen-1-yl)pyrido[3,2-d]pyrimidin-4-amine], the inhibition at 0.01 µM (SK3 channel; 10 nM) was 45.5%, the inhibition at 10 µM (SK3 channel; 10 μM) was 92.8% and the inhibition at 0.1 µM (SK2 channel; 100 nM) was 91.2%. The inhibition at 10 µM (SK2 channel; 10 μM) was 91.8%, the “toxicity in xenografted mice” value [1] was “apparent non-toxicity” and the “weight of the mice versus control group” value ([1]; at 10 weeks, xenografted mice) was “no significant difference in weight between the two groups”. For the same compound, the “primary tumour volume versus control group” value ([1]; at the time of primary tumour excision) was “Tumour volume did not differ between groups”, the lung metastases ([1]; ex vivo after 15 weeks) was “developed lung metastases” and the bone metastases ([1]; ex vivo after 15 weeks, FIG. 1) was “reduced the number of bone metastases”. For the same compound, the “ovarian and uterine metastases” value ([1]; ex vivo after 15 weeks, FIG. 2) was “fully stopped the development of ovarian and uterine metastases”.

`Cl.c1ccc2c(c1)CCCC2Nc1ncnc2cccnc12` (centres unmarked) [Compound 75, N-Tetralin-1-ylpyrido[3,2-d]pyrimidin-3-ium-4-amine chloride] was tested, and the “% SK3 inhibition” value (SK3 channel; 10 nM) was 10 nM: 92.43 ± 0.78 (N = 2) %, the inhibition at 0.1 µM (SK3 channel; 100 nM) was 85.4% and the inhibition at 10 µM (SK3 channel; 10 μM) was 88.8%. For the same compound, the inhibition at 0.1 µM (SK2 channel; 100 nM) was 80% and the inhibition at 10 µM (SK2 channel; 10 μM) was 93.3%.

For `Oc1nc(NC2CCCc3ccccc32)c2ncccc2n1` (centres unmarked) [Compound 34, 4-(1,2,3,4-tetrahydronaphthalen-1-ylamino)pyrido[3,2-d]pyrimidin-2-ol], the inhibition at 0.05 µM (SK3 channel) was 32.9%, the inhibition at 0.5 µM (SK3 channel) was 40.4% and the inhibition at 0.1 µM (SK2 channel; 100 nM) was 92.7%. The inhibition at 10 µM (SK2 channel; 10 μM) was 94.8%.

With `c1cnc2c(NC3CCCCC3)ncnc2c1` [Compound 23, N-Cyclohexylpyrido[3,2-d]pyrimidin-4-amine] the inhibition at 10 µM (SK3 channel; 10 μM) was 8.4% and the inhibition at 10 µM (SK2 channel; 10 μM) was 1%.

For `CNc1nc(NC2CCCc3ccccc32)c2ncccc2n1` (centres unmarked) [Compound 35, N^2-methyl-N^4-(1,2,3,4-tetrahydronaphthalen-1-yl)pyrido[3,2-d]pyrimidine-2,4-diamine], the inhibition at 0.1 µM (SK2 channel; 100 nM) was 83.7% and the inhibition at 10 µM (SK2 channel; 10 μM) was 91.4%.

For `c1ccc2c(c1)CCCC2Nc1ncnc2cccnc12` (centres unmarked) [Compound 7, N-(1,2,3,4-Tetrahydronaphthalen-1-yl)pyrido[3,2-d]pyrimidin-4-amine], the inhibition at 0.001 µM (SK3 channel) was 42.2%, the “% SK3 inhibition” value (SK3 channel; 10 nM) was 10 nM: 56.1 ± 4.8 (N = 3) % and the “% SK3 inhibition” value (SK3 channel; 100 nM) was 100 nM: 81.3 ± 1.0 (N = 3) %. For the same compound, the “% SK3 inhibition” value (SK3 channel; 10 μM) was 10 μM: 83.4 ± 3.2 (N = 8) %, the inhibition at 0.001 µM (SK2 channel) was 35% and the inhibition at 0.01 µM (SK2 channel) was 89.3%. The “% SK2 inhibition” value (SK2 channel; 100 nM) was 100 nM: 91.5 ± 1.6 (N = 9) % and the “% SK2 inhibition” value (SK2 channel; 10 μM) was 10 μM: 95.6 ± 1.2 (N = 9) %.

In the case of `c1ccc2c3c(ccc2c1)CCCC3Nc1ncnc2cccnc12` (centres unmarked) [Compound 29, N-(1,2,3,4-Tetrahydrophenanthren-4-yl)pyrido[3,2-d]pyrimidin-4-amine], the inhibition at 10 µM (SK3 channel; 10 μM) is reported as 46% and the inhibition at 10 µM (SK2 channel; 10 μM) is reported as 16.2%.

For `c1ccc2c(c1)CCC[C@H]2Nc1ncnc2cccnc12` [Compound 18, (R)—N-(1,2,3,4-Tetrahydronaphthalen-1-yl)pyrido[3,2-d]pyrimidin-4-amine], the inhibition at 0.001 µM (SK3 channel) was 44.7%, the inhibition at 0.01 µM (SK3 channel; 10 nM) was 59.7% and the inhibition at 0.1 µM (SK3 channel; 100 nM) was 96%. The inhibition at 10 µM (SK3 channel; 10 μM) was 89.9%, the inhibition at 0.001 µM (SK2 channel) was 36.7% and the inhibition at 0.01 µM (SK2 channel) was 81.4%. It also gave an inhibition at 0.1 µM (SK2 channel; 100 nM) of 92.9% and an inhibition at 10 µM (SK2 channel; 10 μM) of 97%.

Compound `c1ccc2c(c1)CCCN2Nc1ncnc2cccnc12` [Compound 53, N-(3,4-Dihydroquinolin-1(2H)-yl)pyrido[3,2-d]pyrimidin-4-amine] has an inhibition at 0.001 µM (SK3 channel) of 7.4%, an inhibition at 0.01 µM (SK3 channel; 10 nM) of 42.6% and an inhibition at 0.05 µM (SK3 channel) of 29.2%. It also gave an inhibition at 0.1 µM (SK3 channel; 100 nM) of 41.9%, an inhibition at 0.5 µM (SK3 channel) of 94.2% and an inhibition at 10 µM (SK3 channel; 10 μM) of 62.2%. The inhibition at 0.05 µM (SK2 channel; 50 nM) was 29.2%, the inhibition at 0.1 µM (SK2 channel; 100 nM) was 41.9% and the inhibition at 0.5 µM (SK2 channel; 500 nM) was 43.2%. The inhibition at 10 µM (SK2 channel; 10 μM) was 62.2%.
